Laboratory results from PMC3639963, “A New Class of Small Molecule Inhibitor of BMP Signaling” (PLoS ONE, 2013).

Key:
Assay in all cases: Nanosyn kinase profiling
Format in all cases: biochemical
Settings in all cases: read-out: Percentage inhibition; for inhibition at 0.1 µM: 0.1 µM inhibitor; for inhibition at 1 µM: 1 µM inhibitor
AKT2 = biological target: T1, AKT2 (Homo sapiens, UniProt P31751)
T1 construct: purchased Nanosyn (enzymatic panel); SGC in-house recombinant human kinases (DSF panel); Invitrogen (ALK1-6)
Procedure, shortened: (§1)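 Percent inhibition of each kinase was measured with the inhibitor at 0.1 µM and at 1 µM, as part of a 200-kinase human selectivity panel.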

AURKB = biological target: T2, AURKB (Homo sapiens, UniProt Q96GD4)
T2 construct: purchased Nanosyn (enzymatic panel); SGC in-house recombinant human kinases (DSF panel); Invitrogen (ALK1-6)
Procedure, shortened: as §1

BLK = biological target: T3, BLK (Homo sapiens, UniProt P51451)
T3 construct: purchased Nanosyn (enzymatic panel); SGC in-house recombinant human kinases (DSF panel); Invitrogen (ALK1-6)
Procedure, shortened: as §1

CDK1/cycB = biological target: T4, CDK1/cycB (Homo sapiens, UniProt P06493)
T4 construct: purchased Nanosyn (enzymatic panel); SGC in-house recombinant human kinases (DSF panel); Invitrogen (ALK1-6)
Procedure, shortened: as §1

CDK2/cycA = biological target: T5, CDK2/cycA (Homo sapiens, UniProt P24941)
T5 construct: purchased Nanosyn (enzymatic panel); SGC in-house recombinant human kinases (DSF panel); Invitrogen (ALK1-6)
Procedure, shortened: as §1

CSK = biological target: T6, CSK (Homo sapiens, UniProt P41240)
T6 construct: purchased Nanosyn (enzymatic panel); SGC in-house recombinant human kinases (DSF panel); Invitrogen (ALK1-6)
Procedure, shortened: as §1

FLT4 = biological target: T7, FLT4 (Homo sapiens, UniProt P35916)
T7 construct: purchased Nanosyn (enzymatic panel); SGC in-house recombinant human kinases (DSF panel); Invitrogen (ALK1-6)
Procedure, shortened: as §1

HIPK4 = biological target: T8, HIPK4 (Homo sapiens, UniProt Q8NE63)
T8 construct: purchased Nanosyn (enzymatic panel); SGC in-house recombinant human kinases (DSF panel); Invitrogen (ALK1-6)
T8 sequence (Q8NE63 1-616): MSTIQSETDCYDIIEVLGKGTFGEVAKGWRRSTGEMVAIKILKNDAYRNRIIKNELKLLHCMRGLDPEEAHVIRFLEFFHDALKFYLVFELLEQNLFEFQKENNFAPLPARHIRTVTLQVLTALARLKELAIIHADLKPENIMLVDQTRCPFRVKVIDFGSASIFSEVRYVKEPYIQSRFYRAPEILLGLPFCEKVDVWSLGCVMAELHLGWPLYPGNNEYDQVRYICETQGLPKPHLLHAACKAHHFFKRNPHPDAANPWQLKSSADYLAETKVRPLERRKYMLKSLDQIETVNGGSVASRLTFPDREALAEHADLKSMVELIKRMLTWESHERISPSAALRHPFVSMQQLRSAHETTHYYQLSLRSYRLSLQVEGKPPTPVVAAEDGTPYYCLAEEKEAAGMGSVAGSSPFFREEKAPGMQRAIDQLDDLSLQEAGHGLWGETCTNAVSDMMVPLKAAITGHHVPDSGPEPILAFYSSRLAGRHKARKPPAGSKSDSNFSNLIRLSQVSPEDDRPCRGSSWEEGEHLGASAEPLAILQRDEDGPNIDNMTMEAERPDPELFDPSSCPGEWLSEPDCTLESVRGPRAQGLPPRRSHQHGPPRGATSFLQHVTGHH
Procedure, shortened: as §1

IGF1R = biological target: T9, IGF1R (Homo sapiens, UniProt P08069)
T9 construct: purchased Nanosyn (enzymatic panel); SGC in-house recombinant human kinases (DSF panel); Invitrogen (ALK1-6)
Procedure, shortened: as §1

KDR = biological target: T10, KDR (Homo sapiens, UniProt P35968)
T10 construct: purchased Nanosyn (enzymatic panel); SGC in-house recombinant human kinases (DSF panel); Invitrogen (ALK1-6)
Procedure, shortened: as §1

MARK3 = biological target: T11, MARK3 (Homo sapiens, UniProt P27448)
T11 construct: purchased Nanosyn (enzymatic panel); SGC in-house recombinant human kinases (DSF panel); Invitrogen (ALK1-6)
Procedure, shortened: as §1

MNK2 = biological target: T12, MNK2 (Homo sapiens, UniProt Q9HBH9)
T12 construct: purchased Nanosyn (enzymatic panel); SGC in-house recombinant human kinases (DSF panel); Invitrogen (ALK1-6)
Procedure, shortened: as §1

P38α = biological target: T13, P38α (Homo sapiens, UniProt Q16539)
T13 construct: purchased Nanosyn (enzymatic panel); SGC in-house recombinant human kinases (DSF panel); Invitrogen (ALK1-6)
Procedure, shortened: as §1

PHKγ1 = biological target: T14, PHKγ1 (Homo sapiens, UniProt Q16816)
T14 construct: purchased Nanosyn (enzymatic panel); SGC in-house recombinant human kinases (DSF panel); Invitrogen (ALK1-6)
Procedure, shortened: as §1

PKCβ1 = biological target: T15, PKCβ1 (Homo sapiens, UniProt P05771)
T15 construct: purchased Nanosyn (enzymatic panel); SGC in-house recombinant human kinases (DSF panel); Invitrogen (ALK1-6)
Procedure, shortened: as §1

PRAK = biological target: T16, PRAK (Homo sapiens, UniProt Q8IW41)
T16 construct: purchased Nanosyn (enzymatic panel); SGC in-house recombinant human kinases (DSF panel); Invitrogen (ALK1-6)
T16 sequence (Q8IW41 1-473): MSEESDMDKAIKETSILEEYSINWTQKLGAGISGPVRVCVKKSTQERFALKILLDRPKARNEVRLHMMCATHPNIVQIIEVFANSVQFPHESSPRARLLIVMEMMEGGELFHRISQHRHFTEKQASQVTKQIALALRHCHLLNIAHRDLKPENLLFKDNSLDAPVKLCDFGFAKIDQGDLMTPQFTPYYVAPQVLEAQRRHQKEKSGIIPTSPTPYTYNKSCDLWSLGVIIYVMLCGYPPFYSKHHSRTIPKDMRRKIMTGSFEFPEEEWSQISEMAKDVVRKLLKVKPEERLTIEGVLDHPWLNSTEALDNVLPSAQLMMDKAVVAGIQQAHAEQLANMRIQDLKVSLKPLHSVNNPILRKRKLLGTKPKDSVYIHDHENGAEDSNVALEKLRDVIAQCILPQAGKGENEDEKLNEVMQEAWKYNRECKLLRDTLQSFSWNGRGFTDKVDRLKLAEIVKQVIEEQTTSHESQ
Procedure, shortened: as §1

PRKX = biological target: T17, PRKX (Homo sapiens, UniProt P51817)
T17 construct: purchased Nanosyn (enzymatic panel); SGC in-house recombinant human kinases (DSF panel); Invitrogen (ALK1-6)
T17 sequence (P51817 1-358): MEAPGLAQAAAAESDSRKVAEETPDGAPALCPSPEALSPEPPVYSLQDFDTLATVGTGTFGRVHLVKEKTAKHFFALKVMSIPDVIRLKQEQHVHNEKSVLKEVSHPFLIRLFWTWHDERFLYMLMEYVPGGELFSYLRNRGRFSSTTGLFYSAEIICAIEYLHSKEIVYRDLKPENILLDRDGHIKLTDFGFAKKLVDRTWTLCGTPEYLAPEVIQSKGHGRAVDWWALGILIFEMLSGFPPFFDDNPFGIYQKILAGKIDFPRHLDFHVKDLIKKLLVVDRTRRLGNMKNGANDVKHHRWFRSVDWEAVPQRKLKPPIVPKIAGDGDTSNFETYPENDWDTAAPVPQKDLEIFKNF
Procedure, shortened: as §1

TIE2 = biological target: T18, TIE2 (Homo sapiens, UniProt Q02763)
T18 construct: purchased Nanosyn (enzymatic panel); SGC in-house recombinant human kinases (DSF panel); Invitrogen (ALK1-6)
Procedure, shortened: as §1

T12 sequence (Q9HBH9 whole entry): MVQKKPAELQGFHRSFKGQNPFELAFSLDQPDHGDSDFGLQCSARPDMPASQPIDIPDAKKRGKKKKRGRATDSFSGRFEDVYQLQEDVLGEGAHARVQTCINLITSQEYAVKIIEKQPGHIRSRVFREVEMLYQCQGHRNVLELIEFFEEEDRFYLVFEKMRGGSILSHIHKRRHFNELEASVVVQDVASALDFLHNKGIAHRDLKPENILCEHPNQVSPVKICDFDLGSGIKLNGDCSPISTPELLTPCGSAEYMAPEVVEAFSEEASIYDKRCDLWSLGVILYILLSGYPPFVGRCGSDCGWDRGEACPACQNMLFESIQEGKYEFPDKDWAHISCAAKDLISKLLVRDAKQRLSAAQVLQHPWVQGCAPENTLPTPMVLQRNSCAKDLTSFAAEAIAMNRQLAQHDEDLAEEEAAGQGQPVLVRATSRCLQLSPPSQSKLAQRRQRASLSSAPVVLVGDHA
T1 sequence (P31751 whole entry): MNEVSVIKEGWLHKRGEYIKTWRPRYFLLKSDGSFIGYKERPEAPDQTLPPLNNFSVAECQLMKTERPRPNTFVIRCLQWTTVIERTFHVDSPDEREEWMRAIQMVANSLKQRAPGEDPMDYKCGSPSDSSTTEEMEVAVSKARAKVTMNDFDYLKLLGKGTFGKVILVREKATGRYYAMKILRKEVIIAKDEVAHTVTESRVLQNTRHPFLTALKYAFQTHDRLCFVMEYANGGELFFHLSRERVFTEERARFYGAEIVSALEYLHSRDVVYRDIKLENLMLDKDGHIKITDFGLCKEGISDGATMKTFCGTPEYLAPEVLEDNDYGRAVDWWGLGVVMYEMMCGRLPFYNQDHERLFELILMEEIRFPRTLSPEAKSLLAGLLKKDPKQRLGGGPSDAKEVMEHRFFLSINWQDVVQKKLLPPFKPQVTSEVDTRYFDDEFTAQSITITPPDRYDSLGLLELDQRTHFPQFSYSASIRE
T15 sequence (P05771 whole entry): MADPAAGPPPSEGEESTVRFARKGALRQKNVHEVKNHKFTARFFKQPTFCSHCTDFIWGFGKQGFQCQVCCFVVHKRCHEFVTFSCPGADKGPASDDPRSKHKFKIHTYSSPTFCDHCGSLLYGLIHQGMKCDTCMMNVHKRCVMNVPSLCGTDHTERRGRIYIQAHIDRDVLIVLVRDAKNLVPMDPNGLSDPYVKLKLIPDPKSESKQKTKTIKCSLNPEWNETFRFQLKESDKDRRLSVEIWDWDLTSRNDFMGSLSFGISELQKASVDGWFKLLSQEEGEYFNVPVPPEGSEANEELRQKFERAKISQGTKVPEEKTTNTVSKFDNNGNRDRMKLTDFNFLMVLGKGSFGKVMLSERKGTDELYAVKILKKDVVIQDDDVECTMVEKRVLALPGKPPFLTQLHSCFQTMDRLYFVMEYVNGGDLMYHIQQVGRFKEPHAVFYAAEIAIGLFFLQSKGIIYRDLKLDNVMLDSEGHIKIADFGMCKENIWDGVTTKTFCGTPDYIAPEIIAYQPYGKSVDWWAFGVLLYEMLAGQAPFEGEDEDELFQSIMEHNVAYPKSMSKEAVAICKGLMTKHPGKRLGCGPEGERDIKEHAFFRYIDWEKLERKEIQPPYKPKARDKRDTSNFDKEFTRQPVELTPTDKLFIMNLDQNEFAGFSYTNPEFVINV
T14 sequence (Q16816 whole entry): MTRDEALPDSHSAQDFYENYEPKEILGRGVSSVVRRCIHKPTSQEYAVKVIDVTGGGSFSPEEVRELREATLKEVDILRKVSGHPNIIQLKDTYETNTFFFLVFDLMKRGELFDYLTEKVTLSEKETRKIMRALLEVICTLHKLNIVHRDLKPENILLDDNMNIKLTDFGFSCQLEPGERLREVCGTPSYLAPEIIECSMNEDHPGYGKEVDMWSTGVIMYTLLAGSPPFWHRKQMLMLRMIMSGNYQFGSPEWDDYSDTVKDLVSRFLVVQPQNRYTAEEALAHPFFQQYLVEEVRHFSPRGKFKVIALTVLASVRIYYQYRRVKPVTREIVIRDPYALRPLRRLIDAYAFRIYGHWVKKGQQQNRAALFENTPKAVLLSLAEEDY
T3 sequence (P51451 whole entry): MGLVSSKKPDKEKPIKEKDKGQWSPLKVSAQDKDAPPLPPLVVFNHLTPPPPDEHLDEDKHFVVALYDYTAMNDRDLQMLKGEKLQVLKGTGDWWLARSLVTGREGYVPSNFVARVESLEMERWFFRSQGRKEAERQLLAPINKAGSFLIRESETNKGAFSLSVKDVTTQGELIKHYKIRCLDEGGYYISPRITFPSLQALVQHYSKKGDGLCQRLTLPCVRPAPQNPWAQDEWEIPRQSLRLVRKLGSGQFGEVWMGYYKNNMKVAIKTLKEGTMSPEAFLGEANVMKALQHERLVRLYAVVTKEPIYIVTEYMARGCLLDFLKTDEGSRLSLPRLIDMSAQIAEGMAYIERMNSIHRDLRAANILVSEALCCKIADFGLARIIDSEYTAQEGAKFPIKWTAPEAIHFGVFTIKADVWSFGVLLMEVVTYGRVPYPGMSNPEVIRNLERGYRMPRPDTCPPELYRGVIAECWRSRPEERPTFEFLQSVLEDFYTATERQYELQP
T9 sequence (P08069 31-1367): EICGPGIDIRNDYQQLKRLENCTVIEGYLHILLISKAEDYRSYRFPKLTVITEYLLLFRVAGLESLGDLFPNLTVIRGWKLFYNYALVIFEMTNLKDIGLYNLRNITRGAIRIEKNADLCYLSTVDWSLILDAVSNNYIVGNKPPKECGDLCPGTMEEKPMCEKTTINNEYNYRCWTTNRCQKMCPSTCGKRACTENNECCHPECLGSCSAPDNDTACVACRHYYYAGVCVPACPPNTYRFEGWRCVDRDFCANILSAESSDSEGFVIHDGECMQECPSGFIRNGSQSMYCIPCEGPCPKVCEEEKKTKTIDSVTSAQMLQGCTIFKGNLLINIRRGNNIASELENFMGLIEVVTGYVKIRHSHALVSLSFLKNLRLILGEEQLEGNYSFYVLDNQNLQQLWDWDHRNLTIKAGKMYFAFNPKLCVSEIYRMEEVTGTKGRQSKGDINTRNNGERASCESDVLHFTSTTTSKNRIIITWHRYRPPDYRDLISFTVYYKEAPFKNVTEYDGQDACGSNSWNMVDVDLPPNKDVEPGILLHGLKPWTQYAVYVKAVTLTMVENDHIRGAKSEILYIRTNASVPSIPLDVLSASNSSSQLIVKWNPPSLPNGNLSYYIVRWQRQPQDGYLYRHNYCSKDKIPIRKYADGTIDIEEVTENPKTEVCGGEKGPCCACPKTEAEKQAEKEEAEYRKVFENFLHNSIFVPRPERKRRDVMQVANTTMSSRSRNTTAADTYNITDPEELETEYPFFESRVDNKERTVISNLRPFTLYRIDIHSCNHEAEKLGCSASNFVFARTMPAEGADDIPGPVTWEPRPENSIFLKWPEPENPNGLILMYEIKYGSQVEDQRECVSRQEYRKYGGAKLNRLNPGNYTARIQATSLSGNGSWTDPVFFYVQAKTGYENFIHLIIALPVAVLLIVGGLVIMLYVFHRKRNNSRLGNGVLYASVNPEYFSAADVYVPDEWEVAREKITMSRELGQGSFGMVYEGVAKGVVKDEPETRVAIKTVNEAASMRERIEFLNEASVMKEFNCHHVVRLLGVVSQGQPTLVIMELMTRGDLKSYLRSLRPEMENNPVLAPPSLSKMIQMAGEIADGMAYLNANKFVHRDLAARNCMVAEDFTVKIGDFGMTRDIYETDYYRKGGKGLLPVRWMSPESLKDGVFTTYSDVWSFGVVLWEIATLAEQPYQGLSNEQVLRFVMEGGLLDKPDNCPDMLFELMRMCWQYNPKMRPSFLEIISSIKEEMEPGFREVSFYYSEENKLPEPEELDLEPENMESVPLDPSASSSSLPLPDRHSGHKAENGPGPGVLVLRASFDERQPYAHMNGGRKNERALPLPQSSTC
T4 sequence (P06493 whole entry): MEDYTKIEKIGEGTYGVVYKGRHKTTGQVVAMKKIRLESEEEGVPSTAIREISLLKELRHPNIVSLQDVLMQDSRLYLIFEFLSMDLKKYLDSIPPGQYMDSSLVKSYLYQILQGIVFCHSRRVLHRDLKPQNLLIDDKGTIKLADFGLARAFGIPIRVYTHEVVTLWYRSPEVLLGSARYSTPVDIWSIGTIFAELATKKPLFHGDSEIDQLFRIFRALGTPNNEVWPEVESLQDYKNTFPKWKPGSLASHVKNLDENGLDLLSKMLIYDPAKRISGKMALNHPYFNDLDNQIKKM
T4 sequence (P14635 whole entry partner): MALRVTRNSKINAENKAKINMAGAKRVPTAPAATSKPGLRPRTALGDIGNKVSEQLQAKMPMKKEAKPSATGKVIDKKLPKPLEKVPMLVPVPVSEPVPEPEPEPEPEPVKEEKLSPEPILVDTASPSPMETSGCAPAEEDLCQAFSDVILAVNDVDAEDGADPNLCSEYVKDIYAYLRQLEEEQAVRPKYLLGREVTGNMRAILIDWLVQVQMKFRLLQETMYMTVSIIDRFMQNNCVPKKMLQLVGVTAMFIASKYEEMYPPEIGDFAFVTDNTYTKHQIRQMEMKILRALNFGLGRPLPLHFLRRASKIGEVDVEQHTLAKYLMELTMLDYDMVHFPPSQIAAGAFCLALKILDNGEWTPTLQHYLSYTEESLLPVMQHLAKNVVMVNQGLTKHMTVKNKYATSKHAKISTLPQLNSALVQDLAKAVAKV
T13 sequence (Q16539 whole entry): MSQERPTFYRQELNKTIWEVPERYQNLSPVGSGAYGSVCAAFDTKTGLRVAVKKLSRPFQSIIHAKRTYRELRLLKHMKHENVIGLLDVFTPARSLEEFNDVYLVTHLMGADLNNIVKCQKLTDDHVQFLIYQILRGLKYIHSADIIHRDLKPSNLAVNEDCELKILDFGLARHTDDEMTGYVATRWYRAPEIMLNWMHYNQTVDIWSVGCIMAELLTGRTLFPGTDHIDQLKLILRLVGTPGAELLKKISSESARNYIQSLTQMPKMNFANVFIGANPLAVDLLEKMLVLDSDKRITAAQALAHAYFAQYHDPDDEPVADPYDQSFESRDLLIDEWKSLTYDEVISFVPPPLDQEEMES

Structure (SMILES) | inhibition at 0.1 µM (AKT2) [%] | inhibition at 1 µM (AKT2) [%] | inhibition at 0.1 µM (AURKB) [%] | inhibition at 1 µM (AURKB) [%] | inhibition at 0.1 µM (BLK) [%] | inhibition at 1 µM (BLK) [%] | inhibition at 0.1 µM (CDK1/cycB) [%] | inhibition at 1 µM (CDK1/cycB) [%] | inhibition at 0.1 µM (CDK2/cycA) [%] | inhibition at 1 µM (CDK2/cycA) [%] | inhibition at 0.1 µM (CSK) [%] | inhibition at 1 µM (CSK) [%] | inhibition at 0.1 µM (FLT4) [%] | inhibition at 1 µM (FLT4) [%] | inhibition at 0.1 µM (HIPK4) [%] | inhibition at 1 µM (HIPK4) [%] | inhibition at 0.1 µM (IGF1R) [%] | inhibition at 1 µM (IGF1R) [%] | inhibition at 0.1 µM (KDR) [%] | inhibition at 1 µM (KDR) [%] | also measured
COc1cc(-c2cc(-c3cccc(O)c3)cnc2N)cc(OC)c1OC [K02288, 3-[6-amino-5-(3,4,5-trimethoxy-phenyl)-pyridin-3-yl]-phenol] | -2 | -1 | 0.3 | 1.5 | 3.2 | 27 | 1 | 1.5 | 0 | 0 | 3.2 | 13 | 0.6 | 1.4 | 0.8 | 4.2 | -3 | -1 | 0.5 | 3.9 | inhibition at 0.1 µM (MARK3): 2.6%; inhibition at 1 µM (MARK3): 5.6%; inhibition at 0.1 µM (MNK2): 1.9%; inhibition at 1 µM (MNK2): 3.2%; inhibition at 0.1 µM (P38α): -3%; inhibition at 1 µM (P38α): 1.5%; inhibition at 0.1 µM (PHKγ1): 1.8%; inhibition at 1 µM (PHKγ1): 4.4%; inhibition at 0.1 µM (PKCβ1): -1%; inhibition at 1 µM (PKCβ1): 0.7%; inhibition at 0.1 µM (PRAK): 0%; inhibition at 1 µM (PRAK): 0%; inhibition at 0.1 µM (PRKX): -1%; inhibition at 1 µM (PRKX): -1%; inhibition at 0.1 µM (TIE2): 1%; inhibition at 1 µM (TIE2): 3%
c1ccc2c(-c3cnn4cc(-c5ccc(N6CCNCC6)cc5)cnc34)ccnc2c1 [LDN-193189] | 1 | 1.8 | 2.3 | 15 | 3.9 | 24 | 0.5 | 5 | 1.2 | 4.1 | 3.3 | 6 | 3.4 | 13 | 0 | 4.9 | 4.1 | 5.4 | 19 | 69 | inhibition at 0.1 µM (MARK3): 11%; inhibition at 1 µM (MARK3): 63%; inhibition at 0.1 µM (MNK2): 3.7%; inhibition at 1 µM (MNK2): 31%; inhibition at 0.1 µM (P38α): 4.4%; inhibition at 1 µM (P38α): 3.3%; inhibition at 0.1 µM (PHKγ1): 5.2%; inhibition at 1 µM (PHKγ1): 27%; inhibition at 0.1 µM (PKCβ1): -2%; inhibition at 1 µM (PKCβ1): 0.2%; inhibition at 0.1 µM (PRAK): 0.8%; inhibition at 1 µM (PRAK): 0.1%; inhibition at 0.1 µM (PRKX): 0.2%; inhibition at 1 µM (PRKX): 1.2%; inhibition at 0.1 µM (TIE2): 2%; inhibition at 1 µM (TIE2): 16%
